Measurements from patent US6777229B1, “Plasmids from Corynebacterium glutamicum and use thereof” (Degussa AG, priority 1999, dated 2004).

Tests used:
Experiment in all cases: Minimum inhibition concentration, NCCLS Approved Standard M7-A4 dilution test
Format in all cases: cell-based
[1] = system: Corynebacterium glutamicum LP-6; details: strain LP-6 (resistant test strain)
Excerpt: (§1) In order to identify antibiotic resistance genes on new plasmids, the strain to be investigated, in the present case Corynebacterium glutamicum LP-6, and a sensitive control strain, in the present case Corynebacterium glutamicum ATCC13032, are initially tested for resistance or sensitivity to various antibiotics and concentrations of antibiotics. […] Using the method of “Approved Standard M7-A4”, it is possible to determine inhibition concentrations and thus to ascertain the resistance of the investigated strain of bacteria.
(§2) In order to identify antibiotic resistance regions on the novel plasmids pTET3 or pCRY4, the resistant test strain Corynebacterium glutamicum LP-6 and the sensitive control strain Corynebacterium glutamicum ATCC13032 were initially cultured in the presence and absence of various antibiotics and antibiotic concentrations in accordance with the experimental method of the National Committee of Clinical Laboratory Standards (National Committee of Clinical Laboratory Standards, Methods for dilution antimicrobial susceptibility tests for bacteria that grow aerobically; Approved Standard, M7-A4 (1997)). The antibiotics required for this test, inter alia the antibiotics tetracycline, spectinomycin, streptomycin and sulfamethoxazole, were obtained from Sigma-Aldrich Chemie GmbH (Deisenhofen, Germany) and used in the concentrations stated in “Approved Standard M7-A4”. The nutrient medium required for this test, “MÖLLER-HINTON bouillon” was obtained from Merck KGaA (Darmstadt, Germany) and used in accordance with the manufacturer's instructions. Using the method of “Approved Standard M7-A4”, it is possible to determine inhibition concentrations (Table 1) and to identify the resistance of the bacterial strain Corynebacterium glutamicum LP-6 to the antibiotics tetracycline, spectinomycin, streptomycin and sulfamethoxazole. Plasmid DNA isolated from Corynebacterium glutamicum LP-6 using an alkaline lysis method (“NucleoBond Nucleic Acid Purification Kits and Cartridges User Manual (PT3167-1)”, Clonetech Laboratories GmbH, Heidelberg, Germany, 1997) was then transferred with electrical assistance into Corynebacterium glutamicum ATCC13032. Selection was performed directly for the presence of the identified tetracycline resistance in the primary selection on LB agar containing 5 μg/ml of tetracycline. […] The transformed strain was named Corynebacterium glutamicum ATCC13032 [pTET3].

[2] = system: Corynebacterium glutamicum ATCC13032; details: strain ATCC13032 (sensitive control), MÜLLER-HINTON bouillon
Excerpt: as §1, §2

[3] = system: Corynebacterium glutamicum ATCC13032 [pTET3]; details: strain ATCC13032 [pTET3]
Excerpt: In order to identify antibiotic resistance genes on new plasmids, the strain to be investigated, in the present case Corynebacterium glutamicum LP-6, and a sensitive control strain, in the present case Corynebacterium glutamicum ATCC13032, are initially tested for resistance or sensitivity to various antibiotics and concentrations of antibiotics. The National Committee of Clinical Laboratory Standards (NCCLS) experimental procedure is preferably used for this purpose (“Methods for dilution antimicrobial susceptibility tests for bacteria that grow aerobically”, fourth edition; Approved Standard, M7-A4, NCCLS 17(2), (1997)). Using the method of “Approved Standard M7-A4”, it is possible to determine inhibition concentrations and thus to ascertain the resistance of the investigated strain of bacteria.
The plasmid to be investigated, in the present case pTET3, is then isolated from strain LP-6 as described above and used to transform a suitable control or indicator strain, in the present case strain ATCC13032. Methods for transforming coryneform bacteria are described, for example, in Thierbach et al. ([…] 29, 356-362 (1988)), in Liebl et al. (FEMS Microbiology Letters 65, 299-304 (1989)) or in Dunican et al. (Bio/Technology 7, 1067-1070 (1989)). Selection is performed on conventional, complex nutrient media, such as for example brain-heart bouillon or Luria-Bertani medium, which are supplemented with the appropriate antibiotics. The antibiotic and the concentration thereof for this selection process is determined on the basis of the above-mentioned “Approved Standard, M7-A4”. In this manner, strain ATCC13032[pTET3], is obtained by selection for tetracycline resistance. The resistance/sensitivity of strain ATCC13032[pTET3) and of the control strain ATCC13032 is then investigated using the above-mentioned method, yielding the result that strain ATCC13032[pTET3] is resistant to the antibiotics tetracycline, streptomycin, spectinomycin and sulfamethoxazole.
In order to identify antibiotic resistance regions on the novel plasmids pTET3 or pCRY4, the resistant test strain Corynebacterium glutamicum LP-6 and the sensitive control strain Corynebacterium glutamicum ATCC13032 were initially cultured in the presence and absence of various antibiotics and antibiotic concentrations in accordance with the experimental method of the National Committee of Clinical Laboratory Standards (National Committee of Clinical Laboratory Standards, Methods for dilution antimicrobial susceptibility tests for bacteria that grow aerobically; Approved Standard, M7-A4 (1997)). […]

Compound	Minimum inhibition concentration [1]	Minimum inhibition concentration [2]	Minimum inhibition concentration [3]
CN[C@@H]1[C@H](O)[C@H](NC)[C@H]2O[C@@]3(O)C(=O)C[C@@H](C)O[C@H]3O[C@@H]2[C@H]1O [Spectinomycin]	>2000 μg of antibiotic per ml	≦50 μg of antibiotic per ml	>2000 μg of antibiotic per ml
[H]/N=C(/N)N[C@H]1[C@H](O)[C@@H](O)[C@H](O[C@@H]2O[C@@H](C)[C@](O)(C=O)[C@H]2O[C@@H]2O[C@@H](CO)[C@H](O)[C@@H](O)[C@@H]2NC)[C@@H](N/C(N)=N\[H])[C@@H]1O [Streptotmycin]	≦100 μg of antibiotic per ml	≦0.5 μg of antibiotic per ml	≦100 μg of antibiotic per ml
Cc1cc(NS(=O)(=O)c2ccc(N)cc2)no1 [Sulfamethoxazole]	≦300 μg of antibiotic per ml	≦150 μg of antibiotic per ml	≦300 μg of antibiotic per ml
CN(C)[C@@H]1C(O)=C(C(N)=O)C(=O)[C@@]2(O)C(O)=C3C(=O)c4c(O)cccc4[C@@](C)(O)[C@H]3C[C@@H]12 [Tetracycline]	≦12 μg of antibiotic per ml	≦0.75 μg of antibiotic per ml	≦12 μg of antibiotic per ml
